Data from patent US7429578B2, “Tricyclic inhibitors of poly(ADP-ribose) polymerases” (Agouron Pharmaceuticals, Inc., priority 1999, dated 2008).
Values joined by “and” are separate entries in the source; they are usually repeats but may differ in a detail not shown here. Identical values can stand only once.

Experiments:
A549 cells = assay: Cytotoxicity potentiation assay (topotecan); type: cell-based; conditions: test compound at 0.4 μM, ratio of IC50 of topotecan alone to IC50 of topotecan with test compound
purified PARP protein = purified PARP protein (Homo sapiens, UniProt P09874); assay: PARP enzyme inhibition assay; type: biochemical; conditions: [32P]NAD+ incorporation, 500 μM NAD+, 25° C.; two values in a cell = tested twice; read-out: Inhibition Constant Ki
purified PARP protein, sequence (P09874 whole entry): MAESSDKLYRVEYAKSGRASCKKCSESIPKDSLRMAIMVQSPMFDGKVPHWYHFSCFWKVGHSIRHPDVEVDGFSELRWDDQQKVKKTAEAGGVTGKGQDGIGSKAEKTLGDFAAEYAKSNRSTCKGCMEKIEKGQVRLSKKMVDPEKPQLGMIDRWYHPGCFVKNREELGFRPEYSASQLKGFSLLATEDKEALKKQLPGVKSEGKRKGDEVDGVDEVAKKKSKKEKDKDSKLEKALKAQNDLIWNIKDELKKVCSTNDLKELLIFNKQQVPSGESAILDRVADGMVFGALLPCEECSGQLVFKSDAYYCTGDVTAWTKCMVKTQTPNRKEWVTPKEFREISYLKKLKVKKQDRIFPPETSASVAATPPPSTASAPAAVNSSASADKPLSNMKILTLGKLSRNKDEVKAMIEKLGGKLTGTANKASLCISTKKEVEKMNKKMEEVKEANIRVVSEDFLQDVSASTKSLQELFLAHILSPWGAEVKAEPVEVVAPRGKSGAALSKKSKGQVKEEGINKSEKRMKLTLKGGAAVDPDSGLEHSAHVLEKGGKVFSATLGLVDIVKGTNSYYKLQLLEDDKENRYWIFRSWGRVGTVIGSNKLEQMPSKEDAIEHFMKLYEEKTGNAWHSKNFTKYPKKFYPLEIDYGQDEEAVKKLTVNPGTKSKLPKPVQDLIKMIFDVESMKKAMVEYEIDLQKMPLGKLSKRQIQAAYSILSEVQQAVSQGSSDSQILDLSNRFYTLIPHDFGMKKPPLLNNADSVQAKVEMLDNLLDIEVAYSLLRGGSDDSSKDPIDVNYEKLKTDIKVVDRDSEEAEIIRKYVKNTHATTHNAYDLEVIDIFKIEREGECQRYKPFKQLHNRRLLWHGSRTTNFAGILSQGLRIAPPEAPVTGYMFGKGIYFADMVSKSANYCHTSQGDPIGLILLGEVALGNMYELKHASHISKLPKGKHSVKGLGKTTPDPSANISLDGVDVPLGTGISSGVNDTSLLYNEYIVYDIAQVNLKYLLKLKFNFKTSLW

| Compound | Ki (purified PARP protein) | melting point | Cytotoxicity Potentiation PF50 (A549 cells) |
| --- | --- | --- | --- |
| CN(C)Cc1ccc(-c2[nH]c3cccc4c3c2CNC4=O)cc1 [Compound 6] | – | – | 2.2 |
| O=C1NCCc2c(-c3ccccc3)[nH]c3cccc1c23 [Compound 12, 2-Phenyl-3,4,5,6-tetrahydro-1H-azepino[5,4,3-cd]indol-6-one] | 4.2 nM | – | 1.8 |
| O=C1NCCc2c(-c3cccc(CO)c3)[nH]c3cccc1c23 [Compound 16, 2-(3-Hydroxymethylphenyl)-3,4,5,6-tetrahydro-1H-azepino[5,4,3-cd]indol-6-one] | 5 nM | 258 to 259 °C (dec.) | 1.9 |
| CN(C)Cc1ccc(-c2[nH]c3cccc4c3c2CCNC4=O)cc1 [Compound 21, 2-(4-(N,N-Dimethylamino)methylphenyl)-3,4,5,6-tetrahydro-1H-azepino[5,4,3-cd]indol-6-one] | – | – | 2.4 |
| O=C1NCCc2c(-c3ccc(F)cc3)[nH]c3cccc1c23 [Compound 23, 2-(4-Fluorophenyl)-3,4,5,6-tetrahydro-1H-azepino[5,4,3-cd]indol-6-one] | – | – | 2.3 |
| O=C1NN=Cc2c[nH]c3cccc1c23 [Compound 27, 1,5-Dihydro-[1,2]diazepino[4,5,6-cd]-indol-6-one] | 3.4 nM | – | 1.3 |
| O=C1NN=C(c2ccccc2)c2c[nH]c3cccc1c23 [Compound 28, 1,5-Dihydro-3-phenyl-[1,2]diazepino[4,5,6-cd]-indol-6-one] | 4 nM and 3.8 nM | – | 1 |
| O=C1NN=C(CCc2ccccc2)c2c[nH]c3cccc1c23 [Compound 29, 1,5-Dihydro-3-phenethyl-[1,2]diazepino[4,5,6-cd]-indol-6-one] | 8 nM | – | 1 |
| CC(=O)Nc1cccc(-c2[nH]c3cccc4c3c2CCNC4=O)c1 [Compound TT, N-[3-(6-Oxo-3,4,5,6-tetrahydro-1H-azepino[5,4,3-cd]indol-2-yl)-phenyl]-acetamide] | 12.2 nM and 4.2 nM | 300.5 to 302 °C | – |
| CCN(CC)CCc1ccc(-c2[nH]c3cccc4c3c2CCNC4=O)cc1 [Compound YY, 2-[4-(2-Diethylamino-ethyl)-phenyl]-3,4,5,6-tetrahydro-azepino[5,4,3-cd]indol-6-one] | 15.1 nM | 224 to 224.5 °C (dec.) | – |
| O=C(Nc1ccc(F)cc1)c1[nH]c2cccc3c2c1CCNC3=O [Compound YYY, 6-Oxo-3,4,5,6-tetrahydro-1H-azepino[5,4,3-cd]indole-2-carboxylic acid (4-fluorophenyl)-amide] | 6.3 nM | – | 1.5 |
| O=C1NCCc2c(-c3ccccc3O)[nH]c3cccc1c23 [DDD, 2-(2-Hydroxy-phenyl)-1,3,4,5-tetrahydro-azepino[5,4,3-cd]indol-6-one] | 23 nM | 305 °C (dec.) | – |
| N#Cc1[nH]c2cccc3c2c1CCNC3=O [EEE, 6-Oxo-3,4,5,6-tetrahydro-1H-azepino[5,4,3-cd]indole-2-carbonitrile] | 10.6 nM | 315 °C (dec.) | – |
| CSc1ccc(-c2[nH]c3cccc4c3c2CCNC4=O)cc1 [EEEE, 2-(4-Methylsulfanyl-phenyl)-1,3,4,5-tetrahydro-azepino[5,4,3-cd]indol-6-one] | 2.9 nM | 250 to 251 °C | – |
| CCCCCCCCOC(=O)c1[nH]c2cccc3c2c1CCNC3=O [FFF, 6-Oxo-3,4,5,6-tetrahydro-1H-azepino[5,4,3-cd]indole-2-carboxylic acid octyl ester] | 125 nM | 170 to 171 °C | – |
| C[S+]([O-])c1ccc(-c2[nH]c3cccc4c3c2CCNC4=O)cc1 (stereo not shown) [FFFF, 2-(4-Methanesulfinyl-phenyl)-1,3,4,5-tetrahydro-azepino[5,4,3-cd]indol-6-one] | 4.7 nM | 316 to 317 °C (dec.) | – |
| CS(=O)(=O)c1ccc(-c2[nH]c3cccc4c3c2CCNC4=O)cc1 [GGGG, 2-(4-Methanesulfonyl-phenyl)-1,3,4,5-tetrahydro-azepino[5,4,3-cd]indol-6-one] | 6.2 nM | 308 to 309 °C (dec.) | – |
| COc1ccccc1-c1[nH]c2cccc3c2c1CCNC3=O [III, 2-(2-Methoxy-phenyl)-1,3,4,5-tetrahydro-azepino[5,4,3-cd]indol-6-one] | 40 nM | 254 to 255 °C | – |
| CNCc1ccc(-c2[nH]c3cc(F)cc4c3c2CCNC4=O)cc1 [IIII, 8-Fluoro-2-(4-methylaminomethyl-phenyl)-1,3,4,5-tetrahydro-azepino[5,4,3-cd]indol-6-one] | – | – | 2.6 |
| O=C1NCCc2c(-c3ccncc3)[nH]c3cccc1c23 [JJJ, 2-Pyridin-4-yl-1,3,4,5-tetrahydro-azepino[5,4,3-cd]indol-6-one] | 5.3 nM | 250 °C (dec.) | – |
| O=C1NCCc2c(-c3ccc(CN4CCCC4)cc3)[nH]c3cccc1c23 [UUUU, 2-(4-Pyrrolidin-1-ylmethylphenyl)-3,4,5,6-tetrahydro-1H-azepino[5,4,3-cd]indol-6-one] | – | – | 2.0 |

Further lines, with some results ahead:

| Ki (purified PARP protein) | melting point | Compound | Cytotoxicity Potentiation PF50 (A549 cells) |
| --- | --- | --- | --- |
| 4.4 nM | – | O=C1NCCc2c(-c3ccc(CN4CCCC4)cc3)[nH]c3cc(F)cc1c23 [JJJJ, 8-Fluoro-2-(4-pyrrolidin-1-ylmethyl-phenyl)-1,3,4,5-tetrahydro-azepino[5,4,3-cd]indol-6-one] | 2.4 |
| 32 nM | 271 to 272 °C | CSc1ccccc1-c1[nH]c2cccc3c2c1CCNC3=O [LLL, 2-(2-Methylsulfanyl-phenyl)-1,3,4,5-tetrahydro-azepino[5,4,3-cd]indol-6-one] | – |
| 10 nM | 330 to 332 °C (dec.) | O=C(Nc1cccc2ccccc12)c1[nH]c2cccc3c2c1CCNC3=O [NNNN, 6-Oxo-1,3,4,5-tetrahydro-1H-azepino[5,4,3-cd]indole-2-carboxylic Acid naphthalen-1-ylamide] | – |
| 4.1 nM | – | CNCc1ccc(-c2[nH]c3cccc4c3c2CCNC4=O)cc1 [OO, 2-(4-(N-Methylamino)methylphenyl)-3,4,5,6-tetrahydro-1H-azepino[5,4,3-cd]indol-6-one] | 2.4 |
| 14 nM | 321 to 322 °C (dec.) | CNC(=O)c1[nH]c2cccc3c2c1CCNC3=O [OOO, 6-Oxo-3,4,5,6-tetrahydro-1H-azepino[5,4,3-cd]indole-2-carboxylic acid methylamide] | – |
| 13 nM | 191 to 192 °C | C#CCNC(=O)c1[nH]c2cccc3c2c1CCNC3=O [OOOO, 6-Oxo-1,3,4,5-tetrahydro-1H-azepino[5,4,3-cd]indole-2-carboxylic acid prop-2-ynylamide] | – |
| 32 nM | 261 to 262 °C (dec.) | CC(C)NC(=O)c1[nH]c2cccc3c2c1CCNC3=O [PPPP, 6-Oxo-1,3,4,5-tetrahydro-1H-azepino[5,4,3-cd]indole-2-carboxylic acid isopropylamide] | – |
| 5.5 nM and 4.5 nM | 335 to 336 °C | CC1=NNC(=O)c2cccc3[nH]cc1c23 [QQ, 1,5-Dihydro-3-methyl-[1,2]diazepino[4,5,6-cd]-indol-6-one] | – |
| 23 nM | 160 to 163 °C | O=C1NCCc2c(-c3cccc(-c4ccccc4)c3)[nH]c3cccc1c23 [RRR, 2-Biphenyl-3-yl-1,3,4,5-tetrahydro-azepino[5,4,3-cd]indol-6-one] | – |
| 66 nM | 160 to 162 °C | COc1ccc(Cl)cc1-c1[nH]c2cccc3c2c1CCNC3=O [SSS, 2-(5-Chloro-2-methoxy-phenyl)-3,4,5,6-tetrahydro-azepino[5,4,3-cd]indol-6-one] | – |
| 14 nM | 235 to 237 °C | O=C1NCCc2c(-c3cccc(CN4CCCCC4)c3)[nH]c3cccc1c23 [SS] | – |
| 11.4 nM | 261 to 262 °C (dec.) | Nc1cccc(C#Cc2[nH]c3cccc4c3c2CCNC4=O)c1 [UUU, 2-(3-Amino-phenylethynyl)-1,3,4,5-tetrahydro-azepino[5,4,3-cd]indol-6-one] | – |
| 13.2 nM | – | O=C1NCCc2c(-c3ccc(CN4CCOCC4)cc3)[nH]c3cccc1c23 [VVVV, 2-(4-Morpholin-4-ylmethylphenyl)-3,4,5,6-tetrahydro-1H-azepino[5,4,3-cd]indol-6-one] | 2.1 |
| 4.4 nM | 118.5 to 119 °C | O=C1NCCc2c(-c3ccc(Cl)c(C(F)(F)F)c3)[nH]c3cccc1c23 [WW, 2-(4-Chloro-3-trifluoromethyl-phenyl)-1,3,4,5-tetrahydro-azepino[5,4,3-cd]indol-6-one] | – |
| 263 nM | 345.5 to 346.5 °C (dec.) | O=C(O)c1ccc(-c2[nH]c3cccc4c3c2CCNC4=O)cc1 [WWW, 4-(6-Oxo-3,4,5,6-tetrahydro-1H-azepino[5,4,3-cd]indol-2-yl)-benzoic Acid] | – |
| 4.6 nM | 261 to 262 °C | O=C1NCCc2c(-c3ccc4ccccc4c3)[nH]c3cccc1c23 [XX, 2-Naphthalen-2-yl-1,3,4,5-tetrahydro-azepino[5,4,3-cd]indol-6-one] | – |
| 370 nM | 298 to 299 °C (dec.) | O=C(O)c1[nH]c2cccc3c2c1CCNC3=O [XXX, 6-Oxo-3,4,5,6-tetrahydro-1H-azepino[5,4,3-cd]indole-2-carboxylic Acid] | – |
| 18 nM | – | C[N+](C)([O-])Cc1ccc(-c2[nH]c3cccc4c3c2CCNC4=O)cc1 [XXXX, 2-(4-(N,N-Dimethylamino)methylphenyl)-3,4,5,6-tetrahydro-1H-azepino[5,4,3-cd]indol-6-one, N-oxide] | 1.7 |
| 9.7 nM | 187.5 to 188.5 °C | O=C1NCCc2c(-c3cccc(CCO)c3)[nH]c3cccc1c23 [ZZ, 2-[3-(2-Hydroxy-ethyl)-phenyl]-1,3,4,5-tetrahydro-azepino[5,4,3-cd]indol-6-one] | – |
